Measurements published in ChEMBL document CHEMBL5257026, “Progress and prospects on DENV protease inhibitors” (Eur J Med Chem, 2016).
pIC50, pKi: −log10 of the molar value. Values belong to the molecule of their own block, whether it stands above or below them. Starred links: 1 amine or outer side, 2 acyl side, 3 side chain; linkers in the order of their positions; H or OH if unused. Non-standard residues stand in square brackets, D forms with d. Residues, ends and D or L forms follow the SMILES beside them. *: point of attachment. Arg(ψCOCO) = N=C(N)NCCC[C@H](N[*:1])C(=O)C(=O)[*:2]; Nle = CCCC[C@H](N)C(=O)O; PhAc = O=C(Cc1ccccc1)*; Bz = O=C(c1ccccc1)*

How the values were obtained:
Design in all cases: species or system dengue virus type 2
[1] = Inhibition of DENV2 recombinant NS2B-NS3 protease expressed in Escherichia coli JM109 using acetyl-TTSTRR-para-nitroaniline as substrate preincubated for 10 mins followed by substrate addition measured after 120 mins by spectrophotometric analysis
[2] = Inhibition of DENV2 recombinant CF40gly(T)R fused NS2B-NS3 protease expressed in Escherichia coli XL1-Blue MRF using Boc-Gly-Arg-Arg-MCA as substrate incubated for 30 mins by fluorescence spectrophotometeric assay
[3] = Inhibition of DENV2 hydrophilic domain of NS2B (48 aminoacids)-NS3 (185 aminoacids) protease using Bz-Nle-Lys-Arg-Arg-AMC as substrate preincubated for 15 mins followed by substrate addition by spectrofluorometeric assay
[4] = Inhibition of DENV2 NS2B-G4-S-G4-NS3 protease using Bz-nKRR-AMC as substrate preincubated for 30 mins followed by substrate addition by fluorescence microplate reader assay
[5] = Inhibition of DENV2 NS2B-NS3 protease expressed in Escherichia coli BL21 (DE3) using Bz-Nle-Lys-Arg-Arg-AMC as substrate preincubated for 30 mins followed by substrate addition by fluorescence plate reader analysis
[6] = Inhibition of DENV2 recombinant NS2B-NS3 protease expressed in Escherichia coli C41 using GRR-AMC as substrate incubated for 15 mins by Lineweaver-Burk plot analysis
[7] = Inhibition of DENV2 recombinant CF40-glycine fused NS2B-NS3 protease expressed in Escherichia coli SG13009 using Ac-TTSTRR-pNA as substrate preincubated for 50 mins followed by substrate addition by spectrophotometric assay
[8] = Inhibition of DENV2 recombinant NS2B-(G4-S-G4)-NS3 protease using Bz-nKRR-AMC as substrate preincubated for 30 mins followed by substrate addition measured after 30 mins by fluorescence spectrophotometric analysis

pIC50 [1]: 4.81
Structure (SMILES): CCCCCCCCCC[N+](CC)(CC)CCOc1ccc2c(c1)C(=O)c1cc(OCC[N+](CC)(CC)CCCCCCCCCC)ccc1-2

Structure (SMILES): O=C1C[C@@H](c2ccc3c(c2)OCCO3)Oc2ccccc21
pKi [2]: 3.73

Structure (SMILES): O=c1cc(-c2ccccc2)oc2ccc(-c3nnn[nH]3)cc12
pKi [2]: 4.16

pIC50 [3]: 6.04
Structure (SMILES): Oc1c(C(Cc2nc3ccccc3s2)c2cccc(OCc3ccccc3)c2)ccc2ccccc12 (stereo not drawn)

Structure (SMILES): Cc1cc(C)c2c(c1)O[C@@H](c1ccc(N(C)C)cc1)CC2=O
pKi [2]: 3.92

pIC50 [4]: 3.52
Structure (SMILES): Cc1[nH]c2ccccc2c1C(=O)NCc1ccc(CN2CCCC2)cc1

pIC50 [5]: 5.05
Structure (SMILES): CC1CNC(c2ccc(Nc3nnc(Nc4ccc(C5=NC(C)CN5)cc4)c4ccccc34)cc2)=N1 (stereo not drawn)

pIC50 [1]: 4.69
Structure (SMILES): CCN1/C(=C/C=C/c2oc3ccc(-c4ccccc4)cc3[n+]2CC)Oc2ccc(-c3ccccc3)cc21

Structure (SMILES): CC(=O)N[C@@H](CCC(=O)O)C(=O)N[C@H](C(=O)N[C@@H](CCCCN)C(=O)N[C@@H](CCCCN)C(=O)N[C@@H](CCC(N)=O)C(=O)N[C@@H](CCCNC(=N)N)C(N)=O)C(C)C (Ac-EVKKQR-NH2)
pKi [6]: 4.18

Structure (SMILES): CC(=O)N[C@@H](Cc1ccccc1)C(=O)N[C@@H](C)C(=O)N[C@@H](C)C(=O)NCC(=O)N[C@@H](CCCNC(=N)N)C(=O)N[C@@H](CCCCN)C(N)=O (Ac-FAAGRK-NH2)
pKi [6]: 4.59

Structure (SMILES): CC(=O)N[C@@H](Cc1ccccc1)C(=O)N[C@@H](C)C(=O)N[C@@H](C)C(=O)NCC(=O)N[C@@H](CCCNC(=N)N)C(=O)N[C@H](C=O)CCCNC(=N)N (Ac-FAAGRR-aldehyde)
pKi [7]: 4.80

Structure (SMILES): CC(=O)N[C@@H](Cc1ccccc1)C(=O)N[C@@H](C)C(=O)N[C@@H](C)C(=O)NCC(=O)N[C@@H](CCCNC(=N)N)C(=O)N[C@@H](CCCNC(=N)N)C(=O)C(=O)N[C@@H](CO)C(=O)N[C@@H](CC(C)C)C(N)=O (Ac-FAAGR[Arg(ψCOCO)]SL-NH2)
pKi [7]: 4.33

Structure (SMILES): CC(=O)NCC(=O)N[C@@H](CCCCN)C(=O)N[C@@H](CCCNC(=N)N)C(N)=O (Ac-Gly-Lys-Arg-NH2)
pKi [6]: 3.82

Structure (SMILES): CC(=O)N[C@@H](CCCCN)C(=O)N[C@@H](CCCNC(=N)N)C(N)=O (Ac-Lys-Arg-NH2)
pKi [6]: 3.92

Structure (SMILES): CC(=O)N[C@@H](CCCCN)C(=O)N[C@@H](CCCCN)C(=O)N[C@@H](CCCNC(=N)N)C(N)=O (Ac-Lys-Lys-Arg-NH2)
pKi [6]: 4.65

Structure (SMILES): CC(=O)N[C@@H](CCCNC(=N)N)C(=O)N[C@H](C(=O)N[C@@H](CO)C(=O)N[C@@H](CCCCN)C(=O)N[C@@H](CCCCN)C(=O)N[C@@H](CCCNC(=N)N)C(N)=O)[C@@H](C)O (Ac-RTSKKR-NH2)
pKi [6]: 4.92

Structure (SMILES): CC(=O)N[C@@H](CO)C(=O)N[C@@H](CCCCN)C(=O)N[C@@H](CCCCN)C(=O)N[C@@H](CCCNC(=N)N)C(N)=O (Ac-SKKR-NH2)
pKi [6]: 3.73

Structure (SMILES): CC(=O)N[C@H](C(=O)N[C@H](C(=O)N[C@@H](CO)C(=O)N[C@H](C(=O)N[C@@H](CCCNC(=N)N)C(=O)N[C@@H](CCCNC(=N)N)C(N)=O)[C@@H](C)O)[C@@H](C)O)[C@@H](C)O (Ac-TTSTRR-NH2)
pKi [6]: 4.34

Structure (SMILES): CC(=O)N[C@H](C(=O)N[C@H](C(=O)N[C@@H](CO)C(=O)N[C@H](C(=O)N[C@@H](CCCNC(=N)N)C(=O)N[C@@H](CCCNC(=N)N)C(=O)C(=O)NCC(=O)N[C@H](C(=O)NCC(=O)N[C@@H](CC(N)=O)C(N)=O)[C@@H](C)O)[C@@H](C)O)[C@@H](C)O)[C@@H](C)O (Ac-TTSTR[Arg(ψCOCO)]GTGN-NH2)
pKi [7]: 3.43

Structure (SMILES): CC(=O)N[C@H](C(=O)N[C@H](C(=O)N[C@@H](CO)C(=O)N[C@H](C(=O)N[C@@H](CCCNC(=N)N)C(=O)N[C@@H](CCCNC(=N)N)C(=O)C(=O)N[C@@H](CO)C(=O)N[C@@H](CC(C)C)C(N)=O)[C@@H](C)O)[C@@H](C)O)[C@@H](C)O (Ac-TTSTR[Arg(ψCOCO)]SL-NH2)
pKi [7]: 3.66

pIC50 [8]: 5.02
Structure (SMILES): CCCC[C@H](NC(=O)c1ccccc1)C(=O)N[C@@H](CCCCN)C(=O)N[C@@H](CCCNC(=N)N)C(=O)N[C@H](C=O)CCCNC(=N)N (Bz-[Nle]KRR-aldehyde)

pIC50 [8]: 5.17
Structure (SMILES): N=C(N)NCCC[C@@H](C=O)NC(=O)[C@H](CCCNC(=N)N)NC(=O)[C@H](CCCCN)NC(=O)Cc1ccccc1 (PhAc-Lys-Arg-Arg-aldehyde)

pIC50 [8]: 3.78
Structure (SMILES): N=C(N)NCCC[C@@H](C=O)NC(=O)[C@H](CCCCN)NC(=O)[C@H](CCCCN)NC(=O)Cc1ccccc1 (PhAc-Lys-Lys-Arg-aldehyde)
